Results taken from patent US7557144B1, “Modulation of protein expression using carbocyclic aryl alkenoic acid derivatives” (The Johns Hopkins University, priority 2000, dated 2009).

Tests used:
[1] = system: ΔF508-CFTR/Hsc70 complex; assay: Immunoprecipitation of Hsc70 and coimmunoprecipitation of CFTR from treated IB3-1 cells; type: cell-based, human; details: 2 days
[2] = system: Hsc70; assay: Hsc70 immunoblot of IB3-1 whole cell lysates; type: cell-based, human; details: IB3-1 cells
Procedure: 3. Immunoblot analysis. Whole cell lysates were prepared by solubilization with 2% SDS at 95° C. Protein concentration in the lysates was determined using the Bio-Rad DC assay reagents with bovine plasma g-globulin as a standard (Bio-Rad Laboratories, Hercules, Calif.). Equal amounts of protein was resolved on 5, 7, 8, or 9% SDS-polyacrylamide gels. Proteins were transferred to nitrocellulose, and immunodetection was performed as previously described (25). Nonspecific binding was blocked by incubation of the nitrocellulose with 2% gelatin or 10% nonfat day milk. Primary antisera and secondary antibodies were applied in buffer containing 0.4% BSA overnight at 4° C. and for 1 h at room temperature, respectively. Detection of immunoreactivity was performed with the enhanced chemiluminescence reagent (ECL, Amer-sham) and fluorography. Recombinant bovine Hsc70 ([…]) was purchased from Stressgen Biotechnologies for use in constructing a standard curve of Hsc70 immunoreactivity. Immunoblots containing the bovine Hsc70 were probed with the Hsc70-specific polyclonal antiserum.

[3] = system: CFTR; assay: Nasal potential difference in CF patients; type: in vivo, human
Excerpt: Standard methods for detecting and quantifying electrical potentials from nasal epithelia have been reported. See e.g., Zeitlin, P. L. (2000) in Mol. Therapy 1: 1; Noone, P. G. et al. (2000) in Mol. Therapy 1: 105-114; Caplen, J. J. et al. (1995) Nat. Med. 1: 39-46; Middleton, P. G. (1994) in Eur. Respir. 7: 2050-2056; the disclosures of which are hereby incorporated by reference.
This is consistent with the presence of a functional CFTR in the nasal epithelial cell surface.
FIG. 16D the same individual as in […] 18 days on 4-phenylbutyrate.

[4] = system: CFTR; details: homozygous ΔF508 patients taking the drug for 1 week; Rubenstein et al. 1998; cited from earlier work
[5] = increasing concentrations of 4-PBA

O=C(O)CCCc1ccccc1 [4-PBA, 4-phenylbutyric acid]
4-PBA concentration at which CFTR was undetectable in the immunoprecipitates [1]: > 1 mM | immunoprecipitable Hsc70 [1, 5]: decreased amounts | immunoreactive CFTR recovered in complex with Hsc70 [1, 5]: less immunoreactive CFTR was recovered | decrease in Hsc70 immunoreactivity ([2]; 4-PBA 2 days, densitometry): ~50% | total Hsc70 immunoreactivity in whole cell lysates ([2]; increasing concentrations of 4-PBA, 2 days): declined in a dose-dependent fashion | nasal potential difference response to low chloride/isoproterenol ([3]; CF patient (deltaF508 homozygous), 20 gm daily for 7 days): induce chloride transport | nasal potential difference response to low chloride/isoproterenol ([3]; same CF patient after 18 days on 4-phenylbutyrate): continues to sustain chloride transport | chloride transport in nasal potential difference measurements [4]: increase chloride transport
